Measurements taken from patent US20100234226A1, “HERBICIDE COMBINATION COMPRISING DIMETHOXYTRIAZINYL-SUBSTITUTED DIFLUOROMETHANESULFONYLANILIDES” (BAYER CROPSCIENCE AG, priority 2008, published 2010).
Where two headings read alike, the source gives them in different places.

Experiments:
Type in all cases: in vivo
[1] = system: Amaranthus retroflexus (AMARE); assay: Post-emergence action against weeds, greenhouse pot test, Amaranthus retroflexus; conditions: read-out: % activity found
Experimental: (§1) Seeds or rhizome pieces of mono- and dicotyledonous harmful and useful plants were placed in peat pots (diameter 4 cm) filled with sandy loam and then covered with soil. The pots were kept in a greenhouse under optimum conditions. In addition, harmful plants encountered in paddy rice cultivation were cultivated in pots with a water level 2 cm above the soil surface.
(§2) About three weeks after the start of the cultivation, the test plants were treated at the 2- to 3-leaf stage. The herbicides, formulated as powder or liquid concentrates, were, either alone or in the combinations according to the invention, sprayed in various dosages on to the green parts of the plants using an application rate of 600 l of water/ha (converted). For further cultivation of the plants, the pots were then again kept under optimum conditions in a greenhouse.
(§3) The visual scoring of the herbicidal effects was carried out in intervals up to 21 days after the treatment. Scoring was carried out in percent in comparison to the untreated control plants. 0%=no herbicidal activity, 100%=complete herbicidal activity=complete kill.
(§4) The percentages from the treatments with the herbicides alone (=individual application) and with the combinations according to the invention (=mixtures) were employed to calculate interactions using the method of Colby. When the observed efficacies of the mixtures exceed the formal sum of the values of the tests with individual applications, they also exceed the expected value according to Colby, which is calculated using the formula below (cf. S. R. Colby; in Weeds 15 (1967) pp. 20 to 22):
(§5) Here: • A, B=activity of components A and B in percent at a dosage of a and b g of ai/ha (=gramm of active substance per hectare), respectively. • E=expected value in % at a dosage of a+b g of ai/ha.
(§6) The combinations according to the invention of herbicides from group (A) with herbicides from group (B) were tested on a broad spectrum of important harmful plants (weed grasses, broad-leaved weeds/Cyperaceae) and useful plants: Triticum aestivum (TRZAS), Stellaria media (STEME), Lolium multiflorum (LOLMU), Veronica persica (VERPE), Alopecurus myosuroides (ALOMY), Matricaria inodora (MATIN), Brassica napus (BRSNW), Viola tricolor (VIOTR), Avena fatua (AVEFA), Amaranthus retroflexus (AMARE), Zea mays (ZEAMX), Pharbitis purpurea (PHBPU), Setaria viridis (SETVI), Fallopia (ex Polygonum) convolvulus (POLCO), Echinochloa crus-gaffi (ECHCG), Abuthilon theophrasti (ABUTH), Cyperus esculentus (CYPES), Oryza sativa (ORYSA).
(§7) Of particular interest are the results shown in the tables (Tab.) below, where the following key is used: • (1) EPPO code (former Bayer code) for the treated plant (see above) • (2) Time of scoring: DAT (days after treatment) • (3) Component A tested (identifying number) • (4) Component B tested (identifying number) • (5) Dosage component A [g of ai/ha] • (6) Dosage component B [g of ai/ha] • (7) % activity found • (8) E value (calculated according to Colby; see above) • (9) Comments: “SYNERGY”=synergistic interaction (E value <% activity found); “SAFENING”=safener action on useful plant (E value >% activity found)

[2] = system: Matricaria inodora (MATIN); assay: Post-emergence action against weeds, greenhouse pot test, Matricaria inodora; conditions: for inhibition at 200 g/ha: 200 g of ai/ha; for inhibition at 600 g/ha: 600 g of ai/ha; for (7) % activity found: MATIN
Experimental: as §1, §2, §3, §4, §5

[3] = system: Zea mays (ZEAMX); assay: Post-emergence action against weeds, greenhouse pot test, Zea mays; conditions: for inhibition at 200 g/ha: 200 g of ai/ha
Experimental: as §1, §2, §3, §4, §5, §6, §7

[4] = system: Lolium multiflorum (LOLMU); assay: Post-emergence action against weeds, greenhouse pot test, Lolium multiflorum; conditions: read-out: % activity found; for inhibition at 200 g/ha: 200 g of ai/ha; for inhibition at 600 g/ha: 600 g of ai/ha
Experimental: as §1, §2, §3, §4, §5, §6, §7

[5] = system: Veronica persica (VERPE); assay: Post-emergence action against weeds, greenhouse pot test, Veronica persica; conditions: read-out: % activity found; for inhibition at 4 g/ha: 4 g of ai/ha; for inhibition at 12 g/ha: 12 g of ai/ha
Experimental: as §1, §2, §3, §4, §5, §6, §7

[6] = system: Cyperus esculentus (CYPES); assay: Post-emergence action against weeds, greenhouse pot test, Cyperus esculentus
Experimental: as §1, §2, §3, §4, §5

[7] = system: Viola tricolor (VIOTR); assay: Post-emergence action against weeds, greenhouse pot test, Viola tricolor; conditions: for inhibition at 200 g/ha: 200 g of ai/ha
Experimental: as §1, §2, §3, §4, §5, §6, §7

[8] = system: Fallopia (ex Polygonum) convolvulus (POLCO); assay: Post-emergence action against weeds, greenhouse pot test, Fallopia convolvulus
Experimental: as §1, §2, §3, §4, §5, §6, §7

[9] = system: Triticum aestivum (TRZAS); assay: Post-emergence action against weeds, greenhouse pot test, Triticum aestivum; conditions: 240 h, read-out: % activity found
Experimental: as §1, §2, §3, §4
(§8) Here: • A, B=activity of components A and B in percent at a dosage of a and b g of ai/ha (=gramm of active substance per hectare), respectively. • E=expected value in % at a dosage of a+b g of ai/ha. […]

[10] = system: Setaria viridis (SETVI); assay: Post-emergence action against weeds, greenhouse pot test, Setaria viridis; conditions: 504 h, read-out: % activity found
Experimental: as §1, §2, §3, §4, §8

[11] = Tripleurospermum inodorum, post-emergence, 240 h, 10 DAT, read-out: % activity found
[12] = Tripleurospermum inodorum, post-emergence, 504 h, 21 DAT, read-out: % activity found
[13] = Zea mays, post-emergence, 240 h, read-out: % activity found
[14] = Fallopia convolvulus, post-emergence, 504 h, read-out: % activity found

## CCOC1Oc2ccc(OS(C)(=O)=O)cc2C1(C)C (racemic) [B-49, (±)-2-ethoxy-2,3-dihydro-3,3-dimethyl-5-benzofuranyl methanesulfonate]
[1]; 504 h, 21 DAT, 200 g of ai/ha
  inhibition at 200 g/ha: 50%
[2]; [11]
  inhibition at 200 g/ha: 0%
  inhibition at 600 g/ha: 0%
[2]; [12]
  inhibition at 200 g/ha: 20%
  inhibition at 600 g/ha: 30%
[3]; Zea mays, post-emergence, 240 h, 10 DAT, read-out: % activity found
  inhibition at 200 g/ha: 30%
[3]; Zea mays, post-emergence, 240 h, 10 DAT, 600 g of ai/ha, read-out: % activity found
  inhibition at 600 g/ha: 40%
[3]; Zea mays, post-emergence, 504 h, 21 DAT, read-out: % activity found
  inhibition at 200 g/ha: 0%
[4]; 240 h, 10 DAT
  inhibition at 200 g/ha: 0%
  inhibition at 600 g/ha: 10%
[4]; 504 h, 21 DAT
  inhibition at 200 g/ha: 0%
  inhibition at 600 g/ha: 0%
[5]; 504 h, 21 DAT, 200 g of ai/ha
  inhibition at 200 g/ha: 20%
[6]; Cyperus esculentus, post-emergence, 504 h, 21 DAT, 600 g of ai/ha, read-out: % activity found
  inhibition at 600 g/ha: 0%
[7]; Viola tricolor, post-emergence, 240 h, 10 DAT, read-out: % activity found
  inhibition at 200 g/ha: 0%
[7]; Viola tricolor, post-emergence, 504 h, 21 DAT, read-out: % activity found
  inhibition at 200 g/ha: 0%
[7]; Viola tricolor, post-emergence, 504 h, 21 DAT, 600 g of ai/ha, read-out: % activity found
  inhibition at 600 g/ha: 0%
[8]; Fallopia convolvulus, post-emergence, 504 h, 21 DAT, 200 g of ai/ha, read-out: % activity found
  inhibition at 200 g/ha: 40%
[8]; Fallopia convolvulus, post-emergence, 504 h, 21 DAT, 600 g of ai/ha, read-out: % activity found
  inhibition at 600 g/ha: 50%

## CNC1=C(c2cccc(C(F)(F)F)c2)C(=O)C(c2ccccc2)O1 (racemic) [B-61, (±)-5-(methylamino)-2-phenyl-4-[3-(trifluoromethyl)phenyl]-3(2H)-furanone]
[2]; 21 DAT, B-61 alone, dose (6) 40
  (7) % activity found: 50%
[2]; 21 DAT, B-61 alone, dose (6) 120
  (7) % activity found: 50%
[2]; 21 DAT, Table 65, B-61 alone, dose (6) 40
  (7) % activity found: 50%
[3]; ZEAMX, 21 DAT, B-61 alone, dose (6) 120
  (7) % activity found: 50%
[3]; [13]
  inhibition at 40 g/ha: 40%
  inhibition at 120 g/ha: 50%
[4]; 240 h
  inhibition at 40 g/ha: 50%
[4]; 504 h
  inhibition at 40 g/ha: 40%
[6]; CYPES, 21 DAT, B-61 alone, dose (6) 40
  (7) % activity found: 20%
[7]; VIOTR, 21 DAT, B-61 alone, dose (6) 120
  (7) % activity found: 70%
[9]
  inhibition at 40 g/ha: 30%

## COc1nc(OC)nc(C(=O)c2cccc(F)c2N(C)S(=O)(=O)C(F)F)n1 [A-1]
[1]; 240 h, 10 DAT, 4 g of ai/ha
  inhibition at 4 g/ha: 70%
[2]; 21 DAT, A-1 alone, dose (5) 4
  (7) % activity found: 50%
[2]; 21 DAT, Table 65, A-1 alone, dose (5) 12
  (7) % activity found: 60%
[2]; Tripleurospermum inodorum, post-emergence, 10/21 DAT, 4 g of ai/ha, read-out: % activity found
  inhibition at 4 g/ha: 50%
[5]; 240 h, 10 DAT
  inhibition at 4 g/ha: 60%
  inhibition at 12 g/ha: 60%
[5]; 504 h, 21 DAT
  inhibition at 4 g/ha: 30%
  inhibition at 12 g/ha: 40%
[6]; Cyperus esculentus, post-emergence, 240 h, 10 DAT, 12 g of ai/ha, read-out: % activity found
  inhibition at 12 g/ha: 70%
[7]; Viola tricolor, post-emergence, 240 h, 10 DAT, 4 g of ai/ha, read-out: % activity found
  inhibition at 4 g/ha: 20%
[8]; 21 DAT, 12 g of ai/ha
  % activity found: 75%

## CCS(=O)(=O)Oc1ccc2c(c1)C(C)(C)CO2 [B-9, 2,3-dihydro-3,3-dimethyl-5-benzofuranyl ethanesulfonate]
[2]; Tripleurospermum inodorum, post-emergence, 504 h, read-out: % activity found
  inhibition at 100 g/ha: 50%
[3]; [13]
  inhibition at 100 g/ha: 10%
  inhibition at 300 g/ha: 20%
[3]; Zea mays, post-emergence, 504 h, read-out: % activity found
  inhibition at 300 g/ha: 0%
[4]; 504 h
  inhibition at 300 g/ha: 0%
[5]; 504 h
  inhibition at 100 g/ha: 0%
[10]
  inhibition at 100 g/ha: 40%
[8]; [14]
  inhibition at 100 g/ha: 0%
  inhibition at 300 g/ha: 30%
